Measurements reported in ChEMBL document CHEMBL4304757, “Synthetic heterocyclic candidates as promising α-glucosidase inhibitors: An overview” (Eur J Med Chem, 2019).

Biological target: T1, Alpha glucosidase (Homo sapiens, UniProt O43451+P10253+P14410+Q2M2H8)
Test: Inhibition of alpha-glucosidase (unknown origin) using p-nitrophenyl-alpha-d-glucopyranoside as substrate preincubated for 5 mins followed by substrate addition measured after 30 mins
Assay type: protein assay

Row | IC50 | SMILES
1 | 100 to 150 nM | Cc1cs/c(=N\C(=O)c2ccccc2Cl)n1-c1cc(Cl)c(Cl)cc1Cl
2 | 100 to 150 nM | COc1ccc(C(=O)/N=c2\scc(C)n2-c2cc(Cl)c(Cl)cc2Cl)cc1
3 | 100 to 150 nM | Cc1cs/c(=N\C(=O)c2cc3ccccc3oc2=O)n1-c1cc(Cl)c(Cl)cc1Cl
4 | 100 to 150 nM | Cc1cccc(C(=O)/N=c2\scc(C)n2-c2cc(Cl)c(Cl)cc2Cl)c1
5 | 100 to 150 nM | Cc1cs/c(=N\C(=O)c2ccco2)n1-c1cc(Cl)c(Cl)cc1Cl

Biological target: T1, Alpha glucosidase
Test: Inhibition of alpha-glucosidase (unknown origin) using p-nitro phenyl glucopyranoside as substrate preincubated for 5 mins followed by substrate addition measured after 30 mins
Assay type: protein assay

Row | SMILES | IC50
6 | O=c1cc(-c2nn(C(Nc3ccc(-c4ccc(NC(c5cccc(Cl)c5)n5nc(-c6cc7ccccc7oc6=O)oc5=S)cc4)cc3)c3cccc(Cl)c3)c(=S)o2)c2ccccc2o1 (configuration not stated) | 70 to 760 nM
7 | O=c1cc(-c2nn(C(Nc3ccc(NC(c4ccc(Cl)cc4)n4nc(-c5cc6ccccc6oc5=O)oc4=S)cc3)c3ccc(Cl)cc3)c(=S)o2)c2ccccc2o1 (configuration not stated) | 70 to 760 nM
8 | O=c1oc2ccccc2cc1-c1nn(C(Nc2ccc(Oc3ccc(NC(c4ccc([N+](=O)[O-])cc4)n4nc(-c5cc6ccccc6oc5=O)oc4=S)cc3)cc2)c2ccc([N+](=O)[O-])cc2)c(=S)o1 (configuration not stated) | 70 to 760 nM
9 | CN(C)c1ccc(C(Nc2ccc(NC(c3ccc(N(C)C)cc3)n3nc(-c4cc(=O)oc5ccccc45)oc3=S)cc2)n2nc(-c3cc4ccccc4oc3=O)oc2=S)cc1 (configuration not stated) | 70 to 760 nM
10 | Cc1ccc(C(Nc2ccc(NC(c3ccc(C)cc3)n3nc(-c4cc(=O)oc5ccccc45)oc3=S)cc2)n2nc(-c3cc4ccccc4oc3=O)oc2=S)cc1 (configuration not stated) | 70 to 760 nM
11 | CN(C)c1ccc(C(Nc2ccc(-c3ccc(NC(c4ccc(N(C)C)cc4)n4nc(-c5cc(=O)oc6ccccc56)oc4=S)cc3)cc2)n2nc(-c3cc4ccccc4oc3=O)oc2=S)cc1 (configuration not stated) | 70 to 760 nM
12 | O=c1oc2ccccc2cc1-c1nn(C(Nc2ccc(Oc3ccc(NC(c4ccc(Br)cc4)n4nc(-c5cc6ccccc6oc5=O)oc4=S)cc3)cc2)c2ccc(Br)cc2)c(=S)o1 (configuration not stated) | 70 to 760 nM
13 | O=c1cc(-c2nn(C(Nc3ccc(-c4ccc(NC(c5cccc(Br)c5)n5nc(-c6cc7ccccc7oc6=O)oc5=S)cc4)cc3)c3cccc(Br)c3)c(=S)o2)c2ccccc2o1 (configuration not stated) | 70 to 760 nM
14 | O=c1cc(-c2nn(C(Nc3ccc(NC(c4ccc(F)cc4)n4nc(-c5cc6ccccc6oc5=O)oc4=S)cc3)c3ccc(F)cc3)c(=S)o2)c2ccccc2o1 (configuration not stated) | 70 to 760 nM
15 | O=c1cc(-c2nn(C(Nc3ccc(-c4ccc(NC(c5ccc(Br)cc5)n5nc(-c6cc7ccccc7oc6=O)oc5=S)cc4)cc3)c3ccc(Br)cc3)c(=S)o2)c2ccccc2o1 (configuration not stated) | 70 to 760 nM
16 | O=c1oc2ccccc2cc1-c1nn(C(Nc2ccc(Oc3ccc(NC(c4ccc(Cl)cc4Cl)n4nc(-c5cc6ccccc6oc5=O)oc4=S)cc3)cc2)c2ccc(Cl)cc2Cl)c(=S)o1 (configuration not stated) | 70 to 760 nM
17 | CN(C)c1ccc(C(Nc2ccc(Oc3ccc(NC(c4ccc(N(C)C)cc4)n4nc(-c5cc6ccccc6oc5=O)oc4=S)cc3)cc2)n2nc(-c3cc4ccccc4oc3=O)oc2=S)cc1 (configuration not stated) | 70 to 760 nM

Now from value to molecule:

Row | IC50 | SMILES
18 | 70 to 760 nM | O=c1cc(-c2nn(C(Nc3ccc(-c4ccc(NC(c5ccc(Cl)cc5)n5nc(-c6cc7ccccc7oc6=O)oc5=S)cc4)cc3)c3ccc(Cl)cc3)c(=S)o2)c2ccccc2o1 (configuration not stated)
19 | 70 to 760 nM | O=c1cc(-c2nn(C(Nc3ccc(NC(c4ccc(Cl)cc4Cl)n4nc(-c5cc6ccccc6oc5=O)oc4=S)cc3)c3ccc(Cl)cc3Cl)c(=S)o2)c2ccccc2o1 (configuration not stated)
20 | 70 to 760 nM | O=c1oc2ccccc2cc1-c1nn(C(Nc2ccc(Oc3ccc(NC(c4ccc(Cl)cc4)n4nc(-c5cc6ccccc6oc5=O)oc4=S)cc3)cc2)c2ccc(Cl)cc2)c(=S)o1 (configuration not stated)
21 | 70 to 760 nM | O=c1cc(-c2nn(C(Nc3ccc(NC(c4ccc([N+](=O)[O-])cc4)n4nc(-c5cc6ccccc6oc5=O)oc4=S)cc3)c3ccc([N+](=O)[O-])cc3)c(=S)o2)c2ccccc2o1 (configuration not stated)
22 | 70 to 760 nM | O=c1cc(-c2nn(C(Nc3ccc(NC(c4cccc(Br)c4)n4nc(-c5cc6ccccc6oc5=O)oc4=S)cc3)c3cccc(Br)c3)c(=S)o2)c2ccccc2o1 (configuration not stated)
23 | 70 to 760 nM | O=c1cc(-c2nn(C(Nc3ccc(NC(c4cccc(Cl)c4)n4nc(-c5cc6ccccc6oc5=O)oc4=S)cc3)c3cccc(Cl)c3)c(=S)o2)c2ccccc2o1 (configuration not stated)
24 | 70 to 760 nM | COc1cccc(C(Nc2ccc(NC(c3cccc(OC)c3)n3nc(-c4cc(=O)oc5ccccc45)oc3=S)cc2)n2nc(-c3cc4ccccc4oc3=O)oc2=S)c1 (configuration not stated)
25 | 70 to 760 nM | Cc1ccc(C(Nc2ccc(Oc3ccc(NC(c4ccc(C)cc4)n4nc(-c5cc6ccccc6oc5=O)oc4=S)cc3)cc2)n2nc(-c3cc4ccccc4oc3=O)oc2=S)cc1 (configuration not stated)
26 | 70 to 760 nM | O=c1cc(-c2nn(C(Nc3ccc(-c4ccc(NC(c5ccc(Cl)cc5Cl)n5nc(-c6cc7ccccc7oc6=O)oc5=S)cc4)cc3)c3ccc(Cl)cc3Cl)c(=S)o2)c2ccccc2o1 (configuration not stated)
27 | 70 to 760 nM | COc1cccc(C(Nc2ccc(-c3ccc(NC(c4cccc(OC)c4)n4nc(-c5cc(=O)oc6ccccc56)oc4=S)cc3)cc2)n2nc(-c3cc4ccccc4oc3=O)oc2=S)c1 (configuration not stated)
28 | 70 to 760 nM | O=c1cc(-c2nn(C(Nc3ccc(-c4ccc(NC(c5ccc([N+](=O)[O-])cc5)n5nc(-c6cc7ccccc7oc6=O)oc5=S)cc4)cc3)c3ccc([N+](=O)[O-])cc3)c(=S)o2)c2ccccc2o1 (configuration not stated)
29 | 70 to 760 nM | Cc1ccc(C(Nc2ccc(-c3ccc(NC(c4ccc(C)cc4)n4nc(-c5cc(=O)oc6ccccc56)oc4=S)cc3)cc2)n2nc(-c3cc4ccccc4oc3=O)oc2=S)cc1 (configuration not stated)

Biological target: T1, Alpha glucosidase
Test: Inhibition of alpha-glucosidase (unknown origin) using pNPG as substrate preincubated for 10 mins followed by substrate addition measured after 30 mins
Assay type: protein assay

Row | SMILES | IC50
30 | Fc1ccc2[nH]c(-c3ccccc3)c(-c3nc(-c4ccccc4)c(-c4ccccc4)n3-c3cccc(Cl)c3)c2c1 | 8300 to 98000 nM
31 | COc1ccc(-n2c(-c3c(-c4ccc(Cl)cc4)[nH]c4ccc(Cl)cc34)nc(-c3ccccc3)c2-c2ccccc2)cc1 | 8300 to 98000 nM
32 | O=C(N/N=C/c1ccc(O)c(O)c1)c1cc2ccccc2[nH]1 | 2300 to 226000 nM
33 | O=C(N/N=C/c1cccc(O)c1O)c1cc2ccccc2[nH]1 | 2300 to 226000 nM
34 | O=C(N/N=C/c1cc(O)c(O)c(O)c1)c1cc2ccccc2[nH]1 | 2300 nM
35 | Clc1cccc(-c2[nH]c3ccccc3c2-c2nc(-c3ccccc3)c(-c3ccccc3)n2-c2ccccc2)c1 | 8300 to 98000 nM
36 | CC(=O)Nc1ccc(-n2c(-c3c(-c4ccccc4)[nH]c4ccc(F)cc34)nc(-c3ccccc3)c2-c2ccccc2)cc1 | 8300 nM
37 | COc1cc(/C=N/NC(=O)c2cc3ccccc3[nH]2)ccc1O | 2300 to 226000 nM
38 | COc1ccc(O)c(/C=N/NC(=O)c2cc3ccccc3[nH]2)c1 | 2300 to 226000 nM
39 | COc1ccc(-n2c(-c3c(-c4cccc(Br)c4)[nH]c4ccccc34)nc(-c3ccccc3)c2-c2ccccc2)cc1 | 8300 to 98000 nM
40 | O=C(N/N=C/c1ccc(Cl)cc1)c1cc2ccccc2[nH]1 | 2300 to 226000 nM
41 | O=C(N/N=C/c1ccccc1O)c1cc2ccccc2[nH]1 | 2300 to 226000 nM
42 | O=C(N/N=C/c1cc(O)cc(O)c1)c1cc2ccccc2[nH]1 | 2300 to 226000 nM
43 | FC(F)(F)c1ccc(-c2[nH]c3ccccc3c2-c2nc(-c3ccccc3)c(-c3ccccc3)n2-c2ccccc2)cc1 | 8300 to 98000 nM

Next, values leading:

Row | IC50 | SMILES
44 | 2300 to 226000 nM | O=C(N/N=C/c1c(O)cc(O)cc1O)c1cc2ccccc2[nH]1
45 | 2300 to 226000 nM | O=C(N/N=C/c1ccc(O)cc1)c1cc2ccccc2[nH]1
46 | 8300 to 98000 nM | Fc1ccc2[nH]c(-c3ccccc3)c(-c3nc(-c4ccccc4)c(-c4ccccc4)n3-c3ccccc3)c2c1
47 | 2300 to 226000 nM | COc1ccc(/C=N/NC(=O)c2cc3ccccc3[nH]2)cc1O
48 | 8300 to 98000 nM | Brc1ccc(-n2c(-c3c(-c4cccc(Br)c4)[nH]c4ccccc34)nc(-c3ccccc3)c2-c2ccccc2)cc1
49 | 2300 to 226000 nM | COc1ccc(/C=N/NC(=O)c2cc3ccccc3[nH]2)c(I)c1O
50 | 2300 to 226000 nM | O=C(N/N=C/c1ccc(Br)c(F)c1)c1cc2ccccc2[nH]1
51 | 2300 to 226000 nM | O=C(N/N=C/c1cc(O)ccc1O)c1cc2ccccc2[nH]1

Biological target: T1, Alpha glucosidase
Test: Inhibition of alpha-glucosidase (unknown origin) using p-nitrophenyl-alpha-d-glucopyranoside as substrate preincubated for 15 mins followed by substrate addition measured after 30 mins by spectrophotometric analysis
Assay type: protein assay

Row | IC50 | SMILES
52 | 20000 to 61000 nM | Fc1cccc(Cn2cc(CSc3nc4ccccc4s3)nn2)c1
53 | 20000 to 61000 nM | Clc1ccc2sc(SCc3cn(Cc4ccccc4Br)nn3)nc2c1
54 | 19000 to 38000 nM | Fc1cccc(CSc2nc(-c3ccc(Br)cc3)cc(-c3cccc(Br)c3)n2)c1
55 | 19000 to 38000 nM | Clc1ccccc1CSc1nc(-c2ccc(Br)cc2)cc(-c2cccc(Br)c2)n1

Biological target: not listed separately
Test: Inhibition of yeast alpha-glucosidase
Design: species or system Saccharomyces cerevisiae

Row | SMILES | IC50
56 | Cc1cc2c(c(=O)[nH]1)C(=O)O/C2=C\c1ccc(Br)cc1 | 1000 to 53000 nM
57 | Cc1cc2c(c(=O)[nH]1)C(=O)O/C2=C\c1ccc(F)c(F)c1 | 1000 nM
58 | CC(C)(C)c1ccc(COc2cccc(-c3cc(=O)c4ccccc4o3)c2)cc1 | 1200 to 88000 nM
59 | Cc1cc2c(c(=O)[nH]1)C(=O)O/C2=C\c1ccc(O)c(O)c1 | 1000 to 53000 nM
60 | Cc1cc2c(c(=O)[nH]1)C(=O)O/C2=C\c1cccs1 | 240 to 10000 nM
61 | Cc1cc2c(c(=O)[nH]1)C(=O)O/C2=C\c1nccn1C | 900 nM
62 | Cc1cccc(COc2cccc(-c3cc(=O)c4ccccc4o3)c2)c1 | 1200 to 88000 nM
63 | O=c1cc(-c2cccc(OCc3cccc(F)c3F)c2)oc2ccccc12 | 3400 nM
64 | O=c1cc(-c2cccc(OCc3cc(C(F)(F)F)ccc3C(F)(F)F)c2)oc2ccccc12 | 1200 nM
65 | O=c1cc(-c2cccc(OCc3cccc(SC(F)(F)F)c3)c2)oc2ccccc12 | 1200 to 88000 nM
66 | Cc1cc2c(c(=O)[nH]1)C(=O)O/C2=C\c1cc(-c2ccccc2)cs1 | 8300 nM
67 | Cc1cc2c(c(=O)[nH]1)C(=O)O/C2=C\c1cc(-c2ccnc(N3CCN(C(=O)OC(C)(C)C)CC3)c2)cs1 | 8300 to 86000 nM
68 | O=c1cc(-c2cccc(OCc3ccccc3)c2)oc2ccccc12 | 1200 to 88000 nM
69 | Cc1cc2c(c(=O)[nH]1)C(=O)O/C2=C\c1ccccc1C(F)(F)F | 1000 to 53000 nM
70 | COc1ccc(COc2cccc(-c3cc(=O)c4ccccc4o3)c2)cc1 | 1200 to 88000 nM
71 | Cc1cc2c(c(=O)[nH]1)C(=O)O/C2=C\c1cc(Br)cs1 | 240 nM
72 | O=c1cc(-c2cccc(OCc3ccc([N+](=O)[O-])cc3)c2)oc2ccccc12 | 1200 to 88000 nM

Now from value to molecule:

Row | IC50 | SMILES
73 | 8300 to 86000 nM | COc1ccc(-c2csc(/C=C3\OC(=O)c4c3cc(C)[nH]c4=O)c2)cn1
74 | 1200 to 88000 nM | N#Cc1cccc(COc2cccc(-c3cc(=O)c4ccccc4o3)c2)c1
75 | 1200 to 88000 nM | N#Cc1ccc(COc2cccc(-c3cc(=O)c4ccccc4o3)c2)cc1
76 | 1000 to 53000 nM | Cc1cc2c(c(=O)[nH]1)C(=O)O/C2=C\c1cccc(Br)c1
77 | 1000 to 53000 nM | Cc1cc2c(c(=O)[nH]1)C(=O)O/C2=C\c1ccccc1
